Data on 1 compound can be found in ChEMBL document CHEMBL5537178, “Discovery of TP0628103: A Highly Potent and Selective MMP-7 Inhibitor with Reduced OATP-Mediated Clearance Designed by Shifting Isoelectric Points” (J Med Chem, 2024).

One series has as its target Stromelysin-1 (Homo sapiens, UniProt P08254). Kind of series: Inhibition of recombinant human MMP3 assessed as enzyme activity by measuring fluorescence using fluorogenic peptide substrate.
The target of series [1] is Matrix metalloproteinase-9 (Homo sapiens, UniProt P14780). Kind of series: Inhibition of recombinant human MMP9 assessed as enzyme activity by measuring fluorescence using fluorogenic peptide substrate.
The target in the next series is CYP3A (Homo sapiens, UniProt P08684+P20815+P24462+Q9HB55). Kind of series: Inhibition of CYP3A in human liver microsomes using testosterone as substrate at 10 uM by LC-MS/MS analysis relative to control. It counts as ADME, Microsome. Particulars: probe testosterone. On the technique in general: Liver microsomes are a subcellular fraction often used to study metabolism.

In the next series the test system is Mus musculus. Briefly: Antifibrotic effect in UUO surgery-induced renal fibrosis C57BL/6J mouse model assessed as reduction in renal collagen at 0.3 to 3 mg/kg/day, sc administered with mini osmotic pump measured after 7 days. Particulars: dose 0.3-3 mg/kg/day, time 7.0 day. It counts as functional, organism-based.
The nature of series [2]: Chemical stability of the compound in pH 4 aqueous solution assessed as degradation by measuring residual rate incubated for 24 hrs at 65 degC by HPLC analysis. It counts as physicochemical. Particulars: read-out: Activity.
The target of the next series is T1, CYP1A2 (Homo sapiens, UniProt P05177).
T1 sequence (P05177 whole entry): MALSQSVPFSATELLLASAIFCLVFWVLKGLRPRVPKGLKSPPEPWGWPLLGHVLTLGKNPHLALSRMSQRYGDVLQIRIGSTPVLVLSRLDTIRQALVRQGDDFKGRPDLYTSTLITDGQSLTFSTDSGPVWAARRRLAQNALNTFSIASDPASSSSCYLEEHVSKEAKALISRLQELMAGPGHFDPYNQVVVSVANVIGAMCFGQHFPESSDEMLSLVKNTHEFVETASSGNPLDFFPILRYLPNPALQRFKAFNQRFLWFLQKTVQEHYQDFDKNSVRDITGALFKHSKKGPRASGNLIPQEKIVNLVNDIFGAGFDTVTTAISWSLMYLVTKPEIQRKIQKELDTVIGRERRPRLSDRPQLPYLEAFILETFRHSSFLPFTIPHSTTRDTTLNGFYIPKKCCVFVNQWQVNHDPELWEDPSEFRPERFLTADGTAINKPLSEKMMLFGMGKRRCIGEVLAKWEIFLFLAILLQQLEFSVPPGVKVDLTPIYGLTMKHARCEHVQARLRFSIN
Briefly: Inhibition of CYP1A2 in human liver microsomes at 10 uM by LC-MS/MS analysis relative to control. The format is ADME, Microsome.

In a further series the target is CYP2D6 (Homo sapiens, UniProt P10635). Kind of series: Inhibition of CYP2D6 in human liver microsomes at 10 uM by LC-MS/MS analysis relative to control. It counts as ADME, Microsome.
Series [3] in a line: Fraction unbound in rat. It counts as ADME.
For another series, the system named is HepG2. Briefly: Cytotoxicity against human HepG2 cells at 10 uM. It counts as toxicity, cell-based. Particulars: hepg2, 10 µM.
The target in series [4] is T2, CYP2C8 (Homo sapiens, UniProt P10632).
T2 sequence (P10632 whole entry): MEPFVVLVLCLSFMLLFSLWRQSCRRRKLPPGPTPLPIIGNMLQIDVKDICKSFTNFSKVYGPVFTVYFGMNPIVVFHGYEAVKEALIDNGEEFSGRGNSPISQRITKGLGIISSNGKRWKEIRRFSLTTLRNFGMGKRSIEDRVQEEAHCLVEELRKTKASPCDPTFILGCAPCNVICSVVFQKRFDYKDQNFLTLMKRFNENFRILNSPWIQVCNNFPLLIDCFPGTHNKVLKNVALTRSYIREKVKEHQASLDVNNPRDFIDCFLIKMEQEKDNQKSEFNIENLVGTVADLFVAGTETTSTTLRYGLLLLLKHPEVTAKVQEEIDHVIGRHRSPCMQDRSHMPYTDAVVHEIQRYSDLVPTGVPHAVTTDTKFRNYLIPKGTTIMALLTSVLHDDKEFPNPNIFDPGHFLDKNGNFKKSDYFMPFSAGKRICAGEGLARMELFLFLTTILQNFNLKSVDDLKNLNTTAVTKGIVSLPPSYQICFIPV
Briefly: Inhibition of CYP2C8 in human liver microsomes at 10 uM by LC-MS/MS analysis relative to control. It counts as ADME, Microsome.

Series [5] is described as follows: Plasma unbound drug concentration at steady state in UUO surgery-induced renal fibrosis C57BL/6J mouse model at 0.1 mg/kg/day, sc administered with mini osmotic pump measured after 3 days. The format is ADME, organism-based. The conditions noted are these: in vivo, 72 h, time 3 day.
Series [6] in a line: Clearance in Sprague-Dawley rat at 0.5 mg/kg, iv. It counts as ADME, organism-based. The conditions noted are these: in vivo.
The target of the next series is T3, Interstitial collagenase (Homo sapiens, UniProt P03956).
T3 sequence (P03956 whole entry): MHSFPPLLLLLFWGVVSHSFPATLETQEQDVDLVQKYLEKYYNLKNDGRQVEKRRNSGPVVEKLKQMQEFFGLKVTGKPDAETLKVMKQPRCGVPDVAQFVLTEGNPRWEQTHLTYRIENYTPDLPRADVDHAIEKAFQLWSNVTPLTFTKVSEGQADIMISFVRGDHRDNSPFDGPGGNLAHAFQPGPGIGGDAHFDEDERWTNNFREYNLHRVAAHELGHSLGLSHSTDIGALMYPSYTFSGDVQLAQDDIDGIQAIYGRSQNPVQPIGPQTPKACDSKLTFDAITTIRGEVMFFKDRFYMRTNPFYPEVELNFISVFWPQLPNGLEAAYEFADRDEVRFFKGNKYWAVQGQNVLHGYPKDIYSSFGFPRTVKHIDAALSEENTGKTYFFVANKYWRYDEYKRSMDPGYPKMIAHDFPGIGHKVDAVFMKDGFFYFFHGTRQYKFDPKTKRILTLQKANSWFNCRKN
Briefly: Inhibition of recombinant human MMP1 assessed as enzyme activity by measuring fluorescence using fluorogenic peptide substrate.

The target of series [7] is T4, CYP2C9 (Homo sapiens, UniProt P11712). Kind of series: Inhibition of CYP2C9 in human liver microsomes at 10 uM by LC-MS/MS analysis relative to control. It counts as ADME, Microsome.
The target in series [8] is Voltage-gated inwardly rectifying potassium channel KCNH2 (Homo sapiens, UniProt Q12809). Kind of series: Inhibition of hERG at 10 uM. It counts as toxicity.
The next series deals with CYP2C19 (Homo sapiens, UniProt P33261). Kind of series: Time dependent inhibition of CYP2C19 in human liver microsomes at 10 uM by LC-MS/MS analysis relative to control. The format is ADME, Microsome. Particulars: read-out: TDI.
Series [9] deals with T2, CYP2C8. Briefly: Time dependent inhibition of CYP2C8 in human liver microsomes at 10 uM by LC-MS/MS analysis relative to control. The format is ADME, Microsome. Particulars: read-out: TDI.
Series [10] deals with Matrix metalloproteinase-14 (Homo sapiens, UniProt P50281). Briefly: Inhibition of recombinant human MMP14 assessed as enzyme activity by measuring fluorescence using fluorogenic peptide substrate.
Series [11] concerns the target T4, CYP2C9. Briefly: Time dependent inhibition of CYP2C9 in human liver microsomes at 10 uM by LC-MS/MS analysis relative to control. It counts as ADME, Microsome. Particulars: read-out: TDI.
Series [12] is described as follows: Chemical stability of the compound in pH 4 aqueous solution assessed as degradation by measuring residual rate incubated measured after 2 weeks at 65 degC by HPLC analysis. The format is physicochemical. The conditions noted are these: read-out: Stability.

Broadly, the IC50 is the concentration needed to halve the response being measured. The fraction unbound is the share of the substance not bound to proteins or other matrix. Low values mean extensive binding, high ones weak binding. As a reminder, the clearance is the rate of elimination divided by the concentration. A lower clearance goes with inefficient removal.

Active and inactive are the calls of the source. No cut-off for these calls is given here.

T4 sequence (P11712 whole entry): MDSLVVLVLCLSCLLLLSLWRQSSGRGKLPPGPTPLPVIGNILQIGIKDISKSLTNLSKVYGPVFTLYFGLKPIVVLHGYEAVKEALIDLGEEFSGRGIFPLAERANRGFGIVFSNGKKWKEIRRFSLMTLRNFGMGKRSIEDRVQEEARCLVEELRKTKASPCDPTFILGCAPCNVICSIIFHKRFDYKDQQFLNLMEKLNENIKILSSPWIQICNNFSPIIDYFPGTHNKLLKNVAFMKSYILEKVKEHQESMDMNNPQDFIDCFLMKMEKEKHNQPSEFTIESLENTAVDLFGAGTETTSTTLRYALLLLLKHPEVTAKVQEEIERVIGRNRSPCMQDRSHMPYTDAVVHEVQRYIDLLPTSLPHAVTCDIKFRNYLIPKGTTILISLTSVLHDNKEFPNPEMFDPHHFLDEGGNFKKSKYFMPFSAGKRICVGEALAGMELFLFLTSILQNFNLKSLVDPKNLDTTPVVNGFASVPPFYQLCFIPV
Chain of CYP2D6 (P10635 whole entry): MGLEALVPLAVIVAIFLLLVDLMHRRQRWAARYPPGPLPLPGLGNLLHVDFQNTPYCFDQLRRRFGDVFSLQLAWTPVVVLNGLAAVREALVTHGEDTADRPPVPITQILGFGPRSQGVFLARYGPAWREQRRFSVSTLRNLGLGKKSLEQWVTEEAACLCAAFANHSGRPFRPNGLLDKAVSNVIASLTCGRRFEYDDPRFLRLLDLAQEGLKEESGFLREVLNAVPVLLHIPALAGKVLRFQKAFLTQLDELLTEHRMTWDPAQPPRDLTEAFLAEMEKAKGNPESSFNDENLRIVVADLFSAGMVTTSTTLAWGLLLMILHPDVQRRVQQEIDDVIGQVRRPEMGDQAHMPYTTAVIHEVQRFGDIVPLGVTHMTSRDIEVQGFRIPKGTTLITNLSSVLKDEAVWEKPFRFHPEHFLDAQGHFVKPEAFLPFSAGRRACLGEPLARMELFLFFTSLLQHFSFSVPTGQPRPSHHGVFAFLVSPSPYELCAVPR
Chain of Matrix metalloproteinase-9 (P14780 whole entry): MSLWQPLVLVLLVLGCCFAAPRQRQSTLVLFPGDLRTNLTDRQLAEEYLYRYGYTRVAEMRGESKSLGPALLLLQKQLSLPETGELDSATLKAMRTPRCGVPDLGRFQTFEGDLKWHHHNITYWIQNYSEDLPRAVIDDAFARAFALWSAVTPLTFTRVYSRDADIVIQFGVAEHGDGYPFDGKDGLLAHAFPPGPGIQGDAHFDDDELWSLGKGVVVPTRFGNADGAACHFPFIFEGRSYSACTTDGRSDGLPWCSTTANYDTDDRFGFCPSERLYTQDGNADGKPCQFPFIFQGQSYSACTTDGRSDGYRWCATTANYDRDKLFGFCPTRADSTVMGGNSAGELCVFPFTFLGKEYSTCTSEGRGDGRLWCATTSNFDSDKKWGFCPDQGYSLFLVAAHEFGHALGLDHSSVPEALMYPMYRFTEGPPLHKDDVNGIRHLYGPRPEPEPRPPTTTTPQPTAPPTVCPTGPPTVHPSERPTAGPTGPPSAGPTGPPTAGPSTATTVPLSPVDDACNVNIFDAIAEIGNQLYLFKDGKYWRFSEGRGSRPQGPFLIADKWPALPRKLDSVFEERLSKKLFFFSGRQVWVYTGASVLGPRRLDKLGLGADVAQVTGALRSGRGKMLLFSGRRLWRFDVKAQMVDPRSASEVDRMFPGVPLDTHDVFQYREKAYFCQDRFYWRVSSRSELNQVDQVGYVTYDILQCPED
Chain of Stromelysin-1 (P08254 whole entry): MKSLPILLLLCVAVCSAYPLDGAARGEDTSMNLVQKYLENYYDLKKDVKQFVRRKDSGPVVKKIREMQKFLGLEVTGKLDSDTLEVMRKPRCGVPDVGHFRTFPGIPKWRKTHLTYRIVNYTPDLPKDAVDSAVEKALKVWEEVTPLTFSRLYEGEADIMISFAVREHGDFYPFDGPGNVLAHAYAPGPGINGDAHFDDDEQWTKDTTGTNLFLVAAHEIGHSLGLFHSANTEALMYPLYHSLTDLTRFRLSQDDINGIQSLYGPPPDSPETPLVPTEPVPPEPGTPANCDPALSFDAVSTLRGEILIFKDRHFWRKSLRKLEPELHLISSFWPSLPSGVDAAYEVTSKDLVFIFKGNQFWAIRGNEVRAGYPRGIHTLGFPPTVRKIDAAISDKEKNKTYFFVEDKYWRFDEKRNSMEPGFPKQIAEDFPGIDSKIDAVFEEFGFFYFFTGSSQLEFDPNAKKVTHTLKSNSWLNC
Chain of CYP2C19 (P33261 whole entry): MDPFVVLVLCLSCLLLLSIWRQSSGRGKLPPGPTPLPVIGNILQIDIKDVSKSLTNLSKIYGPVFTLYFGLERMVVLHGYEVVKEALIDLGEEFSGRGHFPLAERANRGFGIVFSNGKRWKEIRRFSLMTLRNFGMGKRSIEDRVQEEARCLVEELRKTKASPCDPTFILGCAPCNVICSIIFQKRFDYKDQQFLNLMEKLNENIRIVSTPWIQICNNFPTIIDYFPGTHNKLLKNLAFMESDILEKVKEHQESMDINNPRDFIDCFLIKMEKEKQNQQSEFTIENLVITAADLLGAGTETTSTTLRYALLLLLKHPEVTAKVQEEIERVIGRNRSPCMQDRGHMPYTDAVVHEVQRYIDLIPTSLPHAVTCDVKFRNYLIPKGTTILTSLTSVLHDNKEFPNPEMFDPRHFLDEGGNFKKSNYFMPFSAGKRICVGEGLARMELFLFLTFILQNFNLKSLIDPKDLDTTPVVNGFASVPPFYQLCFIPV
Chain of Voltage-gated inwardly rectifying potassium channel KCNH2 (Q12809 whole entry): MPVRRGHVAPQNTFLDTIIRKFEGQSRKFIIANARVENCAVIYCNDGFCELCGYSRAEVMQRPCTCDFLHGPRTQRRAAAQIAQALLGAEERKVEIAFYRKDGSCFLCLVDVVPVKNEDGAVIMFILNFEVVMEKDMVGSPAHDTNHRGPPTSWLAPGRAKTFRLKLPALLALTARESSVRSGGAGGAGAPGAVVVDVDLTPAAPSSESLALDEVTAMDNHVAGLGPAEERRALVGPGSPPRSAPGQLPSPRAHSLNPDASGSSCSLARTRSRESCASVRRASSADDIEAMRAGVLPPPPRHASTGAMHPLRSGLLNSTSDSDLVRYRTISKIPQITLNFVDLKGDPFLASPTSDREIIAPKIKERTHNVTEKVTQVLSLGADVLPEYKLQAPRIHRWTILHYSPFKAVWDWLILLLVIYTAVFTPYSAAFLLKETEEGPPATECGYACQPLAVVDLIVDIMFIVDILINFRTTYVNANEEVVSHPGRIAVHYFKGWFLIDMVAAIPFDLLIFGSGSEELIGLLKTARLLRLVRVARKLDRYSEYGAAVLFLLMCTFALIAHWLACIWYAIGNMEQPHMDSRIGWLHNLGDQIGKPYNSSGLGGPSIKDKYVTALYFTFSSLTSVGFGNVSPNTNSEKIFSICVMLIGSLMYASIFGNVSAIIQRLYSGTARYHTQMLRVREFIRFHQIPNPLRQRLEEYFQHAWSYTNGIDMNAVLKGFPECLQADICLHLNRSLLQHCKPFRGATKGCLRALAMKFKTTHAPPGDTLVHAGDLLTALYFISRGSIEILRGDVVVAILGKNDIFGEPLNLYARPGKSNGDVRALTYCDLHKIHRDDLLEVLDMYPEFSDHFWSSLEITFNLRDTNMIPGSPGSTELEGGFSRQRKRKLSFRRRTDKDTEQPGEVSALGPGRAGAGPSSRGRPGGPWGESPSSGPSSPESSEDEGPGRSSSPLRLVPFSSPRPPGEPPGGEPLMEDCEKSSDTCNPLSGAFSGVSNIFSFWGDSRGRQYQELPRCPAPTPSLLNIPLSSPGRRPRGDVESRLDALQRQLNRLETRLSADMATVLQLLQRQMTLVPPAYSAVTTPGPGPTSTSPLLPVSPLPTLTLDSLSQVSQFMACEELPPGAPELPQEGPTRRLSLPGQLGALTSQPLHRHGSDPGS

As for `CC(C)(C)[C@H](NC(=O)[C@H](Cc1ccncc1)NC(=O)CNC(=O)CC[C@H](NS(=O)(=O)c1ccc(Cl)c(C(F)(F)F)c1)C(=O)O)C(=O)Nc1ccc(C(=O)N2CCC(C(=O)N[C@H](CCCCN)C(=O)N3CC[C@H](N)C3)CC2)cc1`, the IC50 on Stromelysin-1 is above 10 µM; in series [1], above 10 µM; at Interstitial collagenase, above 10 µM; in series [10] it was 1.7 µM. Further, the inhibition at 10 µM against CYP3A stood at 2.5%; on CYP1A2, 3.2%; against CYP2D6, 6.4%; against CYP2C8 [4], 14.4%; against CYP2C9 [7] it was 0.5%; at CYP2C19, 4.8%. For the same compound, the inhibition at 10 µM at CYP2C8 [9] was 9.1%; on CYP2C9 [11] it was -11.5%. Moreover, the outcome in the series with Mus musculus was Active. Further, the remaining at 24 h in [2] worked out at 101%. In series [3], the fraction unbound came out at 0.178. Besides, in the series on HepG2, the Activity result is on record as “Non-Toxic”. The “Cp(f)” value in series [5] was determined as 1.32 nM. This compound gave a clearance in [6] of 3.52 mL/min/kg. In addition, in series [8], the “inhibition (INH)” value is given as “Not Active”. The remaining at 336 h in series [12] turned out to be 98.2%.
